Non-standard residues stand in square brackets, D forms with d. Residues, ends and D or L forms follow the SMILES beside them. dArg(NO2) = N=C(NCCC[C@@H](N)C(=O)O)N[N+](=O)[O-]
Experiments:
recombinant rat nNOS [1] = molecular target: T1, recombinant rat nNOS (Rattus norvegicus, UniProt P29476); assay: NOS hemoglobin capture assay, inhibition of nNOS; assay type: biochemical; conditions: Dixon analysis and method of Cornish and Bowden
T1 construct: made in house; host or cells: E. coli

recombinant rat nNOS [2] = molecular target: T1, recombinant rat nNOS; conditions: prior art compound; cited from earlier work

Row | type of inhibition of nNOS (recombinant rat nNOS [1]) | SMILES | selectivity for nNOS over iNOS (recombinant rat nNOS [2]) [fold]
1 | competitive inhibition | N=C(NCCC[C@H](N)CNc1ccccc1CCN)N[N+](=O)[O-] [Compound 26, N-(4S)-{4-Amino-5-[2-(2-aminoethyl)phenylamino]-pentyl}-N′-nitroguanidine] | –
2 | – | COC(=O)[C@@H](CCCN=C(N)N[N+](=O)[O-])NC(=O)[C@H](N)Cc1ccccc1 [D-Phe-D-Arg^NO2-OMe] (H-[dF]-[dArg(NO2)]-OMe) | 1800
